Source: article PMC4938410 (PLoS ONE, 2016)

Experiments:
BAS0541T = molecular target: T1, BAS0541T (Bacillus anthracis, UniProt A0A384L3H6); conditions: labelled compound ([gamma-32P]ATP mixed with 2.5 uM ATP), 4 mM MgCl2, pH 8, 37 °C
T1 construct: gene GBAA_0572

BAS0540 = molecular target: T2, BAS0540 (Bacillus anthracis, UniProt A0A6L7HQL1); conditions: 60 mM donor, 20 mM MgCl2, pH 7.5, 37 °C; covalent phosphorylation, probable acceptor Asp50
T2 construct: gene GBAA_0571
T2 sequence (A0A6L7HQL1 1-223 limits assumed): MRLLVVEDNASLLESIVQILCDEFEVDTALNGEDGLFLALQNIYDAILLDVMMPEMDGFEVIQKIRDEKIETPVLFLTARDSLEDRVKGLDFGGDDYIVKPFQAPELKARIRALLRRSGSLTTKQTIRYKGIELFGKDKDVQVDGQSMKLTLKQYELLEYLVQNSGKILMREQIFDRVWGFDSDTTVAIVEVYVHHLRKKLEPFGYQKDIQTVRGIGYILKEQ

T1 sequence (A0A384L3H6 190-416 limits assumed): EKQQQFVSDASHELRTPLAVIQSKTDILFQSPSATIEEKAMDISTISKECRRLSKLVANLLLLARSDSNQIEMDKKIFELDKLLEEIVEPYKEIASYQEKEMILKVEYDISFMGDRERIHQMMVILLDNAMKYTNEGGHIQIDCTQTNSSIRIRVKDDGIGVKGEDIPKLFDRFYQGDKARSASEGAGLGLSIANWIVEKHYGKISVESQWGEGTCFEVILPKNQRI

Row | Structure (SMILES) | autophosphorylation, SDS-PAGE autoradiography (BAS0541T) | phosphorylation by small-molecule donor, native PAGE, Coomassie (BAS0540)
1 | Nc1ncnc2c1ncn2[C@@H]1O[C@H](COP(=O)(O)OP(=O)(O)OP(=O)(O)O)[C@@H](O)[C@H]1O [ATP] | Autophosphorylation was assayed by incubating the purified BAS0541T with radiolabelled ATP mixture | 
2 | NC(=O)OP(=O)(O)O [carbamoyl phosphate] |  | physiologically relevant small molecule phosphodonors, AcP and CP
3 | CC(=O)OP(=O)(O)O [acetyl phosphate] |  | physiologically relevant small molecule phosphodonors, AcP and CP
